Assay results as given in PubChem BioAssay (NCI).
Several values for one entry are separate records, joined by “and”; a condition that tells them apart may be missing. Equal entries are not always repeated.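 Assay format: 96-well plates, 48-hour exposure. GI50: concentration for 50% inhibition of growth. Definition used: TGI = concentration required for complete inhibition of growth.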

Key:
Experiment in all cases: NCI anticancer screen, dose series, 48 h
SN12C renal = system: SN12C renal
SK-OV-3 ovarian = system: SK-OV-3 ovarian
NCI-H226 lung = system: NCI-H226 lung
COLO 205 colon = system: COLO 205 colon
KM12 colon = system: KM12 colon
A549 NSCLC = system: A549 NSCLC
SK-MEL-28 melanoma = system: SK-MEL-28 melanoma
SK-MEL-2 melanoma = system: SK-MEL-2 melanoma
TK-10 renal = system: TK-10 renal
M14 melanoma = system: M14 melanoma

SMILES	GI50 (SN12C renal)	TGI (SN12C renal)	GI50 (SK-OV-3 ovarian)	TGI (SK-OV-3 ovarian)	GI50 (NCI-H226 lung)	TGI (NCI-H226 lung)	GI50 (COLO 205 colon)	TGI (COLO 205 colon)	GI50 (KM12 colon)	TGI (KM12 colon)	GI50 (A549 NSCLC)	TGI (A549 NSCLC)	GI50 (SK-MEL-28 melanoma)	TGI (SK-MEL-28 melanoma)	GI50 (SK-MEL-2 melanoma)	TGI (SK-MEL-2 melanoma)	GI50 (TK-10 renal)	TGI (TK-10 renal)	GI50 (M14 melanoma)	TGI (M14 melanoma)
CCCCc1ccc2nc(NC(=O)OC)[nH]c2c1	0.0832 µM	> 60.4 µM	0.0534 µM	> 47.1 µM	0.0429 µM	3.32 µM	0.038 µM	0.37 µM	0.0337 µM	1.3 µM	0.0868 µM	> 100 µM	0.087 µM	35.3 µM	0.789 µM	> 62.1 µM	0.325 µM	29.9 µM	0.0351 µM	0.69 µM
C=C1C(=O)OC2C1C(OC(=O)/C(=C/C)COC(C)=O)CC1(CO1)C1C(OC(=O)/C(=C/C)CO)C=C(C)C21 (stereo unspecified)	–	3.81 µM	–	31.3 µM	–	4.18 µM	–	2.3 µM	–	15.3 µM	–	24.8 µM	–	4.16 µM	–	3.63 µM	–	6.05 µM	–	3.86 µM
O=C(Nc1nc2ncn(CCOC(=O)c3ccccc3)c2c(=O)[nH]1)c1ccccc1	–	> 100 µM	–	> 79.9 µM	–	> 100 µM	–	23.6 µM	–	> 100 µM	–	> 100 µM	–	> 100 µM	–	> 100 µM	–	> 100 µM	–	> 100 µM
COc1ccc(CCNc2nc3ccccc3c3[nH]c4ccccc4c23)cc1OC	3.58 µM	16.5 µM	19.9 µM	34.6 µM	7.82 µM	25 µM	1.57 µM	3.46 µM	1.53 µM	3.58 µM	2.66 µM	8.24 µM	1.71 µM	3.21 µM	1.98 µM	3.77 µM	4.47 µM	17 µM	1.87 µM	3.5 µM
COC1CC(OC2OC(CO)C(O)C(O)C2O)/C(=C\C#N)C(O)C1OC (stereo unspecified)	–	> 100 µM	–	> 100 µM	–	> 100 µM	–	> 100 µM	–	> 100 µM	–	> 100 µM	–	> 100 µM	–	> 100 µM	–	> 100 µM	–	> 100 µM
O=c1c(Cl)nsnc1Cl	–	48.4 µM	–	35 µM	–	53.2 µM	–	3.87 µM	–	> 57.8 µM	–	65.4 µM	–	35.1 µM	–	> 100 µM	–	7.93 µM	–	12.8 µM
CC(=O)Oc1c(-c2ccccc2)[nH]c2cc([N+](=O)[O-])c(/C(Cl)=C/c3ccccc3)cc12	–	19.4 µM	–	83.9 µM	–	18.1 µM	–	19.6 µM	–	16.3 µM	–	44.5 µM	–	25.2 µM	–	30.8 µM	–	64.4 µM	–	23.1 µM
COc1c(O)c2ccccc2c2cc(O)ccc12	–	14.1 µM	–	55 µM	–	31.6 µM	–	31.5 µM	–	25.7 µM	–	23.9 µM	–	11.9 µM	–	11.9 µM	–	61.2 µM	–	8.57 µM
CCC12C=CCN3CC[C@]4(C(=C(C(=O)OC)[C@@H]1Nc1ncnc5c1ncn5C1OC(COC(C)=O)C(OC(C)=O)C1OC(C)=O)Nc1ccccc14)C32 (stereo partly specified)	–	4.45 µM	–	5.32 µM	–	5.22 µM	–	3.48 µM	–	5.51 µM	–	13.2 µM	–	10.8 µM	–	9.36 µM	–	6.58 µM	–	7.03 µM
Cc1cc2c(-c3nc4ccccc4[nH]3)c(O)c(O)cc2c(O)c1-c1c(C)cc2c(-c3nc4ccccc4[nH]3)c(O)c(O)cc2c1O	0.0272 µM	8.08 µM	0.045 µM	0.283 µM	0.0563 µM	0.827 µM	0.0231 µM	0.913 µM	0.017 µM	0.775 µM	0.0117 µM	9.66 µM	0.0976 µM	15.8 µM	0.0993 µM	10.6 µM	0.0386 µM	> 42.1 µM	0.08 µM	> 50 µM
C#Cc1cccc(NC(=O)Nc2ccccc2NC(=O)CCl)c1	15.1 µM	33.5 µM	> 82.5 µM	> 82.5 µM	16 µM	34.1 µM	29 µM	> 82.5 µM	14.2 µM	26.5 µM	25.4 µM	> 82.5 µM	23.7 µM	> 82.5 µM	22 µM	63.9 µM	25.5 µM	> 82.5 µM	27.8 µM	> 82.5 µM
COc1ccc(CN2CCc3c(Cl)nc(N)nc3C2=O)c(OC)c1	14.9 µM	31.5 µM	24.2 µM	88 µM	18.3 µM	41.7 µM	16.3 µM	30.6 µM	14.4 µM	28.4 µM	47.2 µM	> 100 µM	15.7 µM	29.4 µM	16.6 µM	34.8 µM	33.1 µM	99.3 µM	13.8 µM	28.1 µM
CN(C)C1(C#N)CCC2(CC1)OCCO2	–	> 100 µM	–	> 100 µM	–	> 100 µM	–	> 100 µM	–	> 100 µM	–	> 100 µM	–	> 100 µM	–	> 100 µM	–	> 100 µM	–	> 100 µM
O=C(Nc1ccc(Cl)cc1)NS(=O)(=O)c1ccc2c(c1)CCC2	20.3 µg/mL	> 100 µM and 43.1 µg/mL	18 µg/mL	86.1 µM and 41.9 µg/mL	24.1 µg/mL	> 77.8 µM and 52.5 µg/mL	–	> 60.8 µM	19.1 µg/mL	98.9 µM and 40.2 µg/mL	11.9 µg/mL	97.7 µM and 31.3 µg/mL	20.1 µg/mL	> 100 µM and 39.3 µg/mL	21.6 µg/mL	> 100 µM and 48.6 µg/mL	21 µg/mL	> 95.4 µM and 44.5 µg/mL	20.2 µg/mL	97.5 µM and 45.1 µg/mL
CCc1cc(C(N)=O)ccc1-n1nc(C(C)C)c2c(-n3cnc(-c4cnn(C)c4)c3)ccnc21	0.761 µM	> 100 µM	0.492 µM	> 100 µM	3.68 µM	> 100 µM	0.387 µM	–	0.463 µM	6.28 µM	2.18 µM	> 100 µM	1.22 µM	> 100 µM	4.41 µM	> 100 µM	1.23 µM	> 100 µM	1.22 µM	> 100 µM
C=C1C(=O)O[C@@H]2[C@@H]3O[C@@](C)(CC/C=C(\C)CCC[C@@H]2C)[C@H](O)C[C@@H]13	2.61 µM	10.1 µM	13.1 µM	25.8 µM	12.5 µM	26.3 µM	2.06 µM	4.21 µM	–	24.6 µM	3.73 µM	14.7 µM	3.13 µM	12.2 µM	2.41 µM	4.85 µM	1.89 µM	3.46 µM	1.72 µM	3.48 µM
COc1ccc(C2SC(N)=Nc3c2c(C)nn3C(=O)c2ccncc2)cc1 (stereo unspecified)	–	> 100 µM	–	> 100 µM	–	> 100 µM	–	> 100 µM	–	> 100 µM	–	> 100 µM	–	> 100 µM	–	> 100 µM	–	> 100 µM	–	> 100 µM
Cc1ccc(CCC(=O)Nc2ncc(Cc3cc(Cl)ccc3Cl)s2)o1	0.489 µM	11.1 µM	0.399 µM	> 100 µM	0.901 µM	–	0.194 µM	0.658 µM	0.0966 µM	> 36.3 µM	0.376 µM	> 58.8 µM	1.54 µM	> 100 µM	0.683 µM	> 58.5 µM	2.81 µM	> 66.5 µM	0.091 µM	3.97 µM
COc1cc[c]([Hg][Cl])cc1	2.51 µM	6.17 µM	14.2 µM	27.3 µM	22.9 µM	50.6 µM	2.06 µM	4 µM	14.4 µM	27.8 µM	23.8 µM	40.8 µM	1.65 µM	3.36 µM	4.39 µM	17.4 µM	17.5 µM	31.4 µM	1.68 µM	3.87 µM
CCCOC(=O)C1CCC(=O)N1C(=O)C(Cl)Cl (stereo unspecified)	–	> 100 µM	–	> 100 µM	–	> 100 µM	–	> 100 µM	–	> 100 µM	–	> 100 µM	–	> 100 µM	–	> 100 µM	–	> 100 µM	–	> 100 µM
CN(C)CCCn1cnc2ncccc2c1=O	–	> 100 µM	–	> 100 µM	–	> 100 µM	–	> 100 µM	–	> 100 µM	–	> 100 µM	–	> 100 µM	–	> 100 µM	–	> 100 µM	–	> 100 µM
CCCCNC(=S)Nn1c(-c2ccccc2)nc2ccccc2c1=O	–	> 100 µM	–	> 100 µM	–	> 100 µM	–	> 100 µM	–	> 100 µM	–	> 100 µM	–	> 100 µM	–	> 100 µM	–	> 100 µM	–	> 100 µM
COC(=O)C1=CC(=O)C(C(=O)Nc2ccc(OC)cc2)C(c2ccccc2)O1 (stereo unspecified)	–	> 89.1 µM	–	53.5 µM	–	55.1 µM	–	> 100 µM	–	> 100 µM	–	> 72.9 µM	–	> 86.3 µM	–	> 100 µM	–	73.5 µM	–	98.7 µM
CC(=O)NNc1nc(C)c(C(/C=C/c2ccc(/C=C/C(=N\NC(=O)c3ccncc3)c3sc(NNC(C)=O)nc3C)cc2)=N/NC(=O)c2ccncc2)s1	–	> 100 µM	–	> 100 µM	–	> 100 µM	–	> 100 µM	–	> 100 µM	–	> 100 µM	–	> 100 µM	–	> 100 µM	–	> 100 µM	–	> 100 µM
